Experimental data published in patent US7265121B2, “Chemical compounds” (Eli Lilly and Company, priority 2001, dated 2007).

biological target: T1, human factor Xa (Homo sapiens, UniProt P00742); assay: Enzyme inhibition assay: apparent association constant (Kass) for human factor Xa, chromogenic substrate hydrolysis; assay type: biochemical; details: human factor Xa 3.2 nM, BzIleGluGlyArgpNA substrate, approximately inverse of Ki
T1 construct: 25 μL human factor Xa (32 nM in 0.03 M tris, 0.15 M NaCl, 1 mg/mL HSA); purchased Enzyme Research Laboratories (South Bend, Ind., USA)
Protocol: Human factor Xa and human thrombin are purchased from Enzyme Research Laboratories (South Bend, Ind., USA). Other proteases are from other commercial sources. Chromogenic para-nitroanilide peptide protease substrates are purchased from Midwest Biotech (Fishers, Ind., USA).
The binding affinities for human factor Xa are were measured as apparent association constants (Kass) derived from protease inhibition kinetics as described previously.^a,b,c,d The apparent Kass values are obtained using automated (BioMek-1000) dilutions of inhibitors (Kass determinations are performed in triplicate at each of four-eight inhibitor concentrations) into 96-well plates and chromogenic substrate hydrolysis rates determined at 405 nm using a Thermomax plate reader from Molecular Devices (San Francisco). For factor Xa inhibition, the assay protocol is: 50 μL buffer (0.06 M tris, 0.3 M NaCl, pH 7.4); 25 μL inhibitor test solution (in MeOH); 25 μL human factor Xa (32 nM in 0.03 M tris, 0.15 M NaCl, 1 mg/mL HSA); finally, 150 μL BzIleGluGlyArgpNA (0.3 mM in water) added within 2 min to start hydrolysis. Final [factor Xa] is 3.2 nM. [Free Xa] and [bound Xa] are determined from linear standard curves on the same plate by use of SoftmaxPro software for each inhibitor concentration and apparent Kass calculated for each inhibitor concentration which produced hydrolysis inhibition between 20% and 80% of the control (3.2 nM factor Xa): apparent Kass [E:I]/[Ef][If]=[Eb]/[Ef][I^o−Ib]. The apparent Kass values so obtained are approximately the inverse of the Ki for the respective inhibitors [1/appKass=app Ki]. The variability of mean apparent Kass values determined at the single substrate concentration is +/−15%. The assay system Km was measured as 0.347+/−0.031 mM [n=4]; and Vmax was 13.11+/−0.76 μM/min.

T1 sequence (P00742 235-488 limits assumed): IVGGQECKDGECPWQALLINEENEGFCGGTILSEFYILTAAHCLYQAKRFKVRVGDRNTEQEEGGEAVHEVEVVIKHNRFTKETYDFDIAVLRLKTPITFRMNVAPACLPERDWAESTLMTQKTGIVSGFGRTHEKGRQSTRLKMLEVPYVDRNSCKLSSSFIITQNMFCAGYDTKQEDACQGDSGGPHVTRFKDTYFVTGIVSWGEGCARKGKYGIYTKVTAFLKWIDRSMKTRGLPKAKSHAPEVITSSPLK
T1 sequence (P00742 41-179 partner limits assumed): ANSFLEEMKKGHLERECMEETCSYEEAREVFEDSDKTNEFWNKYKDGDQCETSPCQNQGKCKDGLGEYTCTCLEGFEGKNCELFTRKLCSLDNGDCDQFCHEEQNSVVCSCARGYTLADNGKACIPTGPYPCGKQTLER

SMILES | Kass
CC(C)[C@@H](NC(=O)c1cc2cc(Cl)ccc2[nH]1)C(=O)N1CCN(C2CCN(C)CC2)CC1.Cl [Example 18, 1-(5-Chloroindole-2-carbonyl-D-valinyl)-4-(1-methylpiperidin-4-yl)piperazine Hydrochloride] | ~3.58e+08 L/mol
CC(C)[C@@H](NC(=O)c1ccc2cc[nH]c2c1)C(=O)N1CCC(C2CCN(C)CC2)CC1.Cl [Example 9, 1-(Indole-6-carbonyl-D-valinyl)-4-(1-methylpiperidin-4-yl)piperidine Hydrochloride] | ~8.9e+07 L/mol
COc1ccc(C(=O)N[C@@H](C(=O)N2CCC(C3CCN(C)CC3)CC2)C(C)C)cc1.Cl [Example 6, 1-(4-Methoxybenzoyl-D-valinyl)-4-(1-methylpiperidin-4-yl)-piperidine Hydrochloride] | about 20 ×10^6 L/mole

test system: not given; assay: not given; details: not given

SMILES | melting point
C#CC[C@@H](NC(=O)c1ccc2cc[nH]c2c1)C(=O)N1CCN(C2CCN(C)CC2)CC1.Cl | 170 to 180 °C (dec.)
C#CC[C@@H](NC(=O)c1cc2ccc(Cl)cc2s1)C(=O)N1CCN(C2CCN(C)CC2)CC1.Cl | 115 to 135 °C (dec.)
C#CC[C@@H](NC(=O)c1cc2cc(Cl)ccc2[nH]1)C(=O)N1CCN(C2CCN(C)CC2)CC1.Cl | 174 to 185 °C (dec.)
C=CC[C@@H](NC(=O)c1ccc2cc[nH]c2c1)C(=O)N1CCN(C2CCN(C)CC2)CC1.Cl | 110 to 115 °C (dec.)
C=CC[C@@H](NC(=O)c1cc2ccc(Cl)cc2s1)C(=O)N1CCN(C2CCN(C)CC2)CC1.Cl | 130 to 135 °C (dec.)
C=CC[C@@H](NC(=O)c1cc2cc(Cl)ccc2[nH]1)C(=O)N1CCN(C2CCN(C)CC2)CC1.Cl | 170 to 175 °C (dec.)
